In PubChem BioAssay (NCI) one finds TGI and GI50 data, which are given here for seven molecules.

Test systems include CCRF-CEM leukemia; HT29 colon; K-562 leukemia; NCI-H460 lung; NCI-H522 lung; OVCAR-3 ovarian; OVCAR-8 ovarian; SF-268 CNS; U251 CNS; UACC-257 melanoma.
Holding throughout (test): DTP human tumour cell line panel, 48 h

“And” between values parts separate entries of the source, which are not always exact repeats. Equal values may be shown once.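 Results reflect a 48-hour exposure of cells in 96-well plates to compound at five concentrations. GI50 = concentration required for 50% inhibition of growth. The concentration for full growth arrest is given as TGI.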

One may read the TGI as the concentration giving total growth inhibition. Read a high TGI as lower sensitivity of the cells. Regarding `COc1ccc(/C=[N+](\[O-])[C@H](COCc2ccccc2)c2ccccc2)cc1`, the TGI in the experiment with CCRF-CEM leukemia, with HT29 colon, with K-562 leukemia, in the experiment on NCI-H460 lung, in the experiment with NCI-H522 lung and in the experiment on OVCAR-3 ovarian was over 100 µM throughout. The TGI with OVCAR-8 ovarian, with SF-268 CNS, in the experiment with U251 CNS and in the experiment with UACC-257 melanoma was over 100 µM in each case.
Broadly, the GI50 is the concentration giving 50% growth inhibition. For the molecule `C=C1C(=O)O[C@H]2[C@H]1CC/C(COC(=O)c1ccc(C(=O)O)s1)=C\CC[C@@]1(C)O[C@@H]21`, the GI50 with CCRF-CEM leukemia was 1.63 µM; with HT29 colon, 1.56 µM; in the experiment on K-562 leukemia, 1.47 µM; with NCI-H460 lung, 3.33 µM; in the experiment with NCI-H522 lung it was 1.93 µM; in the experiment with OVCAR-3 ovarian, 1.43 µM. Further, the GI50 in the experiment with OVCAR-8 ovarian was 2.69 µM; with SF-268 CNS, 2.08 µM; in the experiment with U251 CNS it was 2.61 µM; in the experiment with UACC-257 melanoma, 2.18 µM. The TGI in the experiment on CCRF-CEM leukemia was 8.66 µM; in the experiment on HT29 colon it was 3.5 µM; with K-562 leukemia, over 100 µM; in the experiment with NCI-H460 lung, 10.8 µM; in the experiment on NCI-H522 lung, 3.87 µM; in the experiment on OVCAR-3 ovarian it was 2.98 µM. Also, the TGI came out at 7.84 µM with OVCAR-8 ovarian, 4.69 µM in the experiment on SF-268 CNS, 8.37 µM in the experiment with U251 CNS and 5.47 µM in the experiment with UACC-257 melanoma.
With `COC(=O)/C(=N/NC(C)(C)C)C(C(=O)C=C(C)C)C(=O)C(=O)Nc1ccc(Cl)cc1C` (stereo not given), the TGI with CCRF-CEM leukemia, in the experiment on HT29 colon, with K-562 leukemia, in the experiment on NCI-H460 lung, with NCI-H522 lung and in the experiment with OVCAR-3 ovarian was over 100 µM throughout. Moreover, the TGI with OVCAR-8 ovarian, with SF-268 CNS, in the experiment with U251 CNS and in the experiment on UACC-257 melanoma was over 100 µM in each case.
Consider `O=c1c(OC/C(=N/O)c2ccccc2)c(-c2ccccc2)oc2ccccc12`, for which the GI50 in the experiment on CCRF-CEM leukemia is 0.461 µM; in the experiment with HT29 colon, 13.7 µM; in the experiment on K-562 leukemia it was 13.7 µM; in the experiment on NCI-H460 lung, 11.3 µM; in the experiment on NCI-H522 lung, 17 µM; in the experiment on OVCAR-3 ovarian, 8.06 µM. Besides, the GI50 is 21.7 µM with OVCAR-8 ovarian, 11.7 µM in the experiment on SF-268 CNS, 11 µM with U251 CNS and 14.1 µM in the experiment on UACC-257 melanoma. The TGI in the experiment with CCRF-CEM leukemia is 6.47 µM; in the experiment on HT29 colon it was 34.3 µM; with K-562 leukemia, over 50 µM; with NCI-H460 lung, 27.5 µM; in the experiment on NCI-H522 lung, over 50 µM; in the experiment on OVCAR-3 ovarian, 20.1 µM. Also, the TGI is over 50 µM with OVCAR-8 ovarian, 25 µM in the experiment with SF-268 CNS, 27.3 µM with U251 CNS and 30.4 µM in the experiment on UACC-257 melanoma.
Take `CCN(CC)CC(C)Nc1ccc(C)c2sc3ccccc3c(=O)c12` (stereo not given): the GI50 in the experiment with CCRF-CEM leukemia is 4.33 µM; in the experiment on HT29 colon, 3.29 µM; with K-562 leukemia, 0.216 µM; with NCI-H460 lung, 2.05 µM; with NCI-H522 lung, 10.9 µM; with OVCAR-3 ovarian it was 6.33 µM. Besides, the GI50 was 6.86 µM in the experiment on OVCAR-8 ovarian, 6.24 µM with SF-268 CNS, 3.43 µM with U251 CNS and 2.07 µM with UACC-257 melanoma. Also, the TGI with CCRF-CEM leukemia was determined as 18 µM; in the experiment on HT29 colon, 10.8 µM; in the experiment on K-562 leukemia, 3.15 µM; in the experiment on NCI-H460 lung, 8.25 µM; in the experiment on NCI-H522 lung, 28.7 µM; with OVCAR-3 ovarian, 19.2 µM. In addition, the TGI worked out at 25.3 µM in the experiment with OVCAR-8 ovarian, 18.4 µM in the experiment on SF-268 CNS, 16.3 µM in the experiment on U251 CNS and 4.82 µM in the experiment with UACC-257 melanoma.
Take `CCCN(CCC)c1c([N+](=O)[O-])cc(S(N)(=O)=O)cc1[N+](=O)[O-]`: the TGI in the experiment on CCRF-CEM leukemia came out at 46.5 µM; in the experiment with HT29 colon, 34 µM; in the experiment with K-562 leukemia, 35.7 µM; with NCI-H460 lung it was 29.4 µM; in the experiment with NCI-H522 lung it was 31.5 µM; in the experiment on OVCAR-3 ovarian, 31.8 µM. Further, the TGI with OVCAR-8 ovarian came to 35.1 µM; in the experiment with SF-268 CNS, 32.8 µM; in the experiment with U251 CNS, 26.9 µM; in the experiment on UACC-257 melanoma, 37.2 µM.
For the molecule `Cn1cnc([N+](=O)[O-])c1Sc1ncnc2nc[nH]c12`, the GI50 in the experiment on CCRF-CEM leukemia was 3.64 µM and 5.1 µM; with HT29 colon, 7.17 µM and 22.6 µM; with K-562 leukemia it was 2.49 µM and 1.3 µM; in the experiment with NCI-H460 lung, 6.58 µM and 16.5 µM; in the experiment with NCI-H522 lung, 7.56 µM; in the experiment on OVCAR-3 ovarian, 2.92 µM and 3.23 µM. Also, the GI50 in the experiment on OVCAR-8 ovarian was 3.68 µM and > 26.6 µM; in the experiment with SF-268 CNS, 5.32 µM and 6.48 µM; in the experiment on U251 CNS, 13.9 µM and 27.7 µM; in the experiment on UACC-257 melanoma, 7.86 µM and 8.71 µM. Also, the TGI was over 100 µM with CCRF-CEM leukemia; over 100 µM in the experiment with HT29 colon; over 100 µM with K-562 leukemia; over 100 µM in the experiment with NCI-H460 lung; over 100 µM with NCI-H522 lung; 75.9 µM and > 80.2 µM in the experiment on OVCAR-3 ovarian. Also, the TGI in the experiment with OVCAR-8 ovarian, in the experiment with SF-268 CNS, in the experiment with U251 CNS and with UACC-257 melanoma was over 100 µM throughout.
